Test results published in ChEMBL document CHEMBL4823243, “Synergistic induction of apoptosis in resistant head and neck carcinoma and leukemia by alkoxyamide-based histone deacetylase inhibitors” (Eur J Med Chem, 2021).
Active and inactive are the calls of the source. The calls are words filed in the database; no cut-off is given here.

Tests used:
[1] = molecular target: Histone deacetylase; experiment: Inhibition of HDAC in human A2780 cells using Boc-Lys (acetyl)-AMC as substrate preincubated for 18 hrs followed by susbtrate addition and measured after 3 hrs by fluorescence microplate reader assay; assay type: cell-based
[2] = molecular target: Histone deacetylase; experiment: Inhibition of HDAC in human CAL-27 cells using Boc-Lys (acetyl)-AMC as substrate preincubated for 18 hrs followed by susbtrate addition and measured after 3 hrs by fluorescence microplate reader assay; assay type: cell-based
[3] = tested on: A2780; experiment: Antiproliferative activity against human A2780 cells assessed as reduction in cell viability after 72 hrs by MTT assay; assay type: functional, cell-based; settings: A2780, 72 h
[4] = tested on: CAL-27; experiment: Antiproliferative activity against human CAL-27 cells assessed as reduction in cell viability after 72 hrs by MTT assay; assay type: functional, cell-based; settings: CAL-27, 72 h
[5] = molecular target: Histone deacetylase 2 (Homo sapiens, UniProt Q92769); experiment: Inhibition of recombinant human full length C-terminal GST-fusion tagged HDAC2 expressed in baculovirus infected insect cells using Boc-Lys(Ac)-AMC as substrate preincubated for 5 mins followed by substrate addition measured after 90 mins by fluorimetry; assay type: cell-based
Sequence of Histone deacetylase 2 (Q92769 whole entry, the tested form may be a part): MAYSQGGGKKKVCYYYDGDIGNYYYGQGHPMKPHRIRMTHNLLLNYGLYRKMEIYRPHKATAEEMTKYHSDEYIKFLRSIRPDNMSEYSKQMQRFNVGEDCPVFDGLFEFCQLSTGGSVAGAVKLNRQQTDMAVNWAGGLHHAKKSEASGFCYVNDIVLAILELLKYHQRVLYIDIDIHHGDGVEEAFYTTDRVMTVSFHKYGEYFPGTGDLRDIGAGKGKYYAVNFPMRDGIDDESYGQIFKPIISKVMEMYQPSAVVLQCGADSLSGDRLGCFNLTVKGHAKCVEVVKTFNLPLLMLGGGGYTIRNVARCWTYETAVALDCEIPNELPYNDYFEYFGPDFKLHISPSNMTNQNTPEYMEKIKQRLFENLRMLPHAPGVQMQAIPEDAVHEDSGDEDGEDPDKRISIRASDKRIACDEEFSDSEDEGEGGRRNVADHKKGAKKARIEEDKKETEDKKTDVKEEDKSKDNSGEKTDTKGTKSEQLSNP

[6] = molecular target: Histone deacetylase 4 (Homo sapiens, UniProt P56524); experiment: Inhibition of recombinant human N-terminal GST-fusion tagged/C-terminal GST-tagged HDAC4 (627 to 1084 residues) expressed in baculovirus infected insect cells using Boc-Lys(TFA)-AMC as substrate preincubated for 5 mins followed by substrate addition measured after 90 mins by fluorimetry
Sequence of Histone deacetylase 4 (P56524 whole entry, the tested form may be a part): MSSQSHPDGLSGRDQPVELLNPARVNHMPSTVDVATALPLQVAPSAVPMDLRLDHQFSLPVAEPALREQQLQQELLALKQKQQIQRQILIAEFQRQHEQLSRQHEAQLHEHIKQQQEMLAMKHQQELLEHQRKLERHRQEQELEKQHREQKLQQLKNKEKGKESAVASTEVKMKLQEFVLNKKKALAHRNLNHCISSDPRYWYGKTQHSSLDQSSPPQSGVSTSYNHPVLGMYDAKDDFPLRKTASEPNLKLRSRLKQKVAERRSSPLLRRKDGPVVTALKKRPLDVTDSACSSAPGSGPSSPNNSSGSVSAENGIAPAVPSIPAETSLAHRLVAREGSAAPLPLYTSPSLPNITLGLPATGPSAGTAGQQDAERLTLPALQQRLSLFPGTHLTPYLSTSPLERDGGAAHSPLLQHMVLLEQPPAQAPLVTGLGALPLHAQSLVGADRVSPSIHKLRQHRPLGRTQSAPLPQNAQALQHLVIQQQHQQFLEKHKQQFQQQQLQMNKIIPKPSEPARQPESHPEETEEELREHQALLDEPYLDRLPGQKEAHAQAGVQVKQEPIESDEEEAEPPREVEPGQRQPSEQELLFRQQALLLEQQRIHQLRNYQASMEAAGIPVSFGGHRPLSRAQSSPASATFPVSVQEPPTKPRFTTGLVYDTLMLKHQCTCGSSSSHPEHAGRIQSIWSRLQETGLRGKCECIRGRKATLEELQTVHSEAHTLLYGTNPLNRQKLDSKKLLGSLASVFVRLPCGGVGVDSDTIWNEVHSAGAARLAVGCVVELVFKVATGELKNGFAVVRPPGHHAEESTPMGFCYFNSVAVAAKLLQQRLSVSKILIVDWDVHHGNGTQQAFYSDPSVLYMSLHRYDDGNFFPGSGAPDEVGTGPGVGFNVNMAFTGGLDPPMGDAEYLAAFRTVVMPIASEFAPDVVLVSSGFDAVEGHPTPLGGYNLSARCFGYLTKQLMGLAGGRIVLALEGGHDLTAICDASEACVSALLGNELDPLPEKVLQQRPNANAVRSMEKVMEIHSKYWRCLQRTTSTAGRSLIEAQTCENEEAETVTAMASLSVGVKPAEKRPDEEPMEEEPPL

[7] = molecular target: T1, Protein deacetylase HDAC6 (Homo sapiens, UniProt Q9UBN7); experiment: Inhibition of recombinant human N-terminal GST-tagged HDAC6 (1 to 1215 residues) expressed in baculovirus infected insect cells using Boc-Lys(Ac)-AMC as substrate preincubated for 5 mins followed by substrate addition measured after 90 mins by fluorimetry
T1 sequence (Q9UBN7 whole entry): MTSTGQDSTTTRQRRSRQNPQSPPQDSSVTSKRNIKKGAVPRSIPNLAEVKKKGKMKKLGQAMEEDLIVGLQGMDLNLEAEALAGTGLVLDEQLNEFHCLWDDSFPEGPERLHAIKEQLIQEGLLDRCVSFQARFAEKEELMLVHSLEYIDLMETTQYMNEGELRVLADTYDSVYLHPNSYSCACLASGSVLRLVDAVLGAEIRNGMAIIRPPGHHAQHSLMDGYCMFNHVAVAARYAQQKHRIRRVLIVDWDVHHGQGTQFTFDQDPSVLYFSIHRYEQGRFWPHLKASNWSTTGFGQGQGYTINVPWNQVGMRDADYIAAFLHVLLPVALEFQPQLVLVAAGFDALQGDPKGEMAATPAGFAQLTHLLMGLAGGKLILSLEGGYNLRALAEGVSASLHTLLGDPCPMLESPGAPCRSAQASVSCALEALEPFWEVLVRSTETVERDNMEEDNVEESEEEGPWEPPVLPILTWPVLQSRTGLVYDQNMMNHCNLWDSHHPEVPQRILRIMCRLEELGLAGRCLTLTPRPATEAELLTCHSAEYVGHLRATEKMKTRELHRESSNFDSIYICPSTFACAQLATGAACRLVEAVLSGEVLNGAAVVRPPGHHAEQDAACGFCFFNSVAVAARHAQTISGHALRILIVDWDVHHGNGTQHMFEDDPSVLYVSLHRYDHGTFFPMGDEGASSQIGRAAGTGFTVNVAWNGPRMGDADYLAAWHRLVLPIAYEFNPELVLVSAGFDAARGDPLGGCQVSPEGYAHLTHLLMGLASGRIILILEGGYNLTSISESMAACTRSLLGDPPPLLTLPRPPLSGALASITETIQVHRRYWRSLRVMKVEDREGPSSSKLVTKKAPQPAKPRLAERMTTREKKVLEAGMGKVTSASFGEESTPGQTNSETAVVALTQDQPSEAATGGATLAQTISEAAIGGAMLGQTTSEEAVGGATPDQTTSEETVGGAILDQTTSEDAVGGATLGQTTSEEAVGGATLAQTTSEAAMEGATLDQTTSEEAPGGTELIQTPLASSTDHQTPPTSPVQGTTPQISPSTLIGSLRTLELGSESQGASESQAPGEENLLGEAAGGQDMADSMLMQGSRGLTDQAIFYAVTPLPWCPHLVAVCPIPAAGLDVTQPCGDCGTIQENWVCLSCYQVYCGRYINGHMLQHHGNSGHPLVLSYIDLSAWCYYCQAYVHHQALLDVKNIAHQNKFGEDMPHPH

[8] = molecular target: T2, Histone deacetylase 8 (Homo sapiens, UniProt Q9BY41); experiment: Inhibition of recombinant human C-terminal His-fusion tagged/N-terminal Strep2 tagged HDAC8 (1 to 377 residues) expressed in insect cells using Boc-Lys(TFA)-AMC as substrate preincubated for 5 mins followed by substrate addition measured after 90 mins by fluorimetry
T2 sequence (Q9BY41 whole entry): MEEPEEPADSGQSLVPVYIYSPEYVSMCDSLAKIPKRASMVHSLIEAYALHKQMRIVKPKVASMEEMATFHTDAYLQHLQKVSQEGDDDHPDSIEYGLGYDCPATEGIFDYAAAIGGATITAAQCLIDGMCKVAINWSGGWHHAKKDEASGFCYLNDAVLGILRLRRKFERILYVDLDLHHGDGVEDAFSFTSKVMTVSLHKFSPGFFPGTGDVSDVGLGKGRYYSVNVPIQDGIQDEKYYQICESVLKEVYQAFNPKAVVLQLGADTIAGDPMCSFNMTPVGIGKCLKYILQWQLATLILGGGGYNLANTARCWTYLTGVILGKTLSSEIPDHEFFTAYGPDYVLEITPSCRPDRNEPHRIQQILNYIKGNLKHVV

[9] = molecular target: T3, Histone deacetylase (Homo sapiens) (UniProt Q13547+O15379+Q9UBN7+Q92769+Q9UQL6+Q8WUI4+Q9BY41+Q96DB2+P56524+Q9UKV0+Q969S8); experiment: Inhibition of HDAC in human Cal27CisR cells assessed as potentiation of cisplatin-induced cytotoxicity by measuring fold reduction in cisplatin IC50 at 0.3 to 0.5 uM pretreated for 48 hrs followed by cisplatin addition and measured after 72 hrs by MTT assay relative to cisplatin alone; assay type: cell-based; settings: dose 0.3-0.5 µM, time 120.0 hrs
[10] = molecular target: T3, Histone deacetylase (Homo sapiens); experiment: Inhibition of HDAC in human CAL-27 cells assessed as potentiation of cisplatin-induced cytotoxicity by measuring fold reduction in cisplatin IC50 at 0.3 to 0.5 uM pretreated for 48 hrs followed by cisplatin addition and measured after 72 hrs by MTT assay relative to cisplatin alone; assay type: cell-based; settings: dose 0.3-0.5 µM, time 120.0 hrs
[11] = molecular target: Histone deacetylase; experiment: Inhibition of HDAC in human Cal27CisR cells assessed as potentiation of cisplatin-induced cytotoxicity by measuring cisplatin IC50 at 0.3 to 0.5 uM pretreated for 48 hrs followed by cisplatin addition and measured after 72 hrs by MTT assay (reference value: 3.57 uM); assay type: cell-based
[12] = molecular target: Histone deacetylase; experiment: Inhibition of HDAC in human CAL-27 cells assessed as potentiation of cisplatin-induced cytotoxicity by measuring cisplatin IC50 at 0.3 to 0.5 uM pretreated for 48 hrs followed by cisplatin addition and measured after 72 hrs by MTT assay (reference value: 3.57 uM); assay type: cell-based
[13] = molecular target: T4, Protein deacetylase HDAC6 (Homo sapiens) (UniProt Q9UBN7); experiment: Inhibition of HDAC6 in human CAL-27 cells assessed as accumulation of acetylated alpha-tubulin at 5 uM for 24 hrs by Western blot analysis; assay type: cell-based
T4 sequence (whole entry): T1 sequence (Q9UBN7 whole entry)

[14] = molecular target: T3, Histone deacetylase (Homo sapiens); experiment: Inhibition of HDAC in human Cal27CisR cells assessed as potentiation of cisplatin-induced cytotoxicity by measuring cisplatin IC50 at 3 to 4 uM pretreated for 48 hrs followed by cisplatin addition and measured after 72 hrs by MTT assay relative to cisplatin alone; assay type: cell-based; settings: dose 3-4 µM, time 120.0 hrs
[15] = molecular target: T3, Histone deacetylase (Homo sapiens); experiment: Inhibition of HDAC in human CAL-27 cells assessed as potentiation of cisplatin-induced cytotoxicity by measuring cisplatin IC50 at 3 to 4 uM pretreated for 48 hrs followed by cisplatin addition and measured after 72 hrs by MTT assay relative to cisplatin alone; assay type: cell-based; settings: dose 3-4 µM, time 120.0 hrs
[16] = molecular target: Histone deacetylase; experiment: Inhibition of HDAC in human Cal27CisR cells assessed as potentiation of cisplatin-induced cytotoxicity by measuring cisplatin IC50 at 3 to 4 uM pretreated for 48 hrs followed by cisplatin addition and measured after 72 hrs by MTT assay (reference value: 3.57 uM); assay type: cell-based
[17] = molecular target: Histone deacetylase; experiment: Inhibition of HDAC in human CAL-27 cells assessed as potentiation of cisplatin-induced cytotoxicity by measuring cisplatin IC50 at 3 to 4 uM pretreated for 48 hrs followed by cisplatin addition and measured after 72 hrs by MTT assay (reference value: 3.57 uM); assay type: cell-based
[18] = molecular target: T4, Protein deacetylase HDAC6 (Homo sapiens); experiment: Inhibition of HDAC6 in human CAL-27 cells assessed as accumulation of acetylated alpha-tubulin at 1 uM for 24 hrs by Western blot analysis; assay type: cell-based
[19] = Inhibition of Class 1/2b HDAC in human HL-60 cells by HDAC-Glo assay; assay type: cell-based
[20] = tested on: HL-60; experiment: Antiproliferative activity against human HL-60 cells assessed as reduction in cell viability for 72 hrs by Celltitre-Glo luminescent assay; assay type: functional, cell-based; settings: HL-60, 72 h

Compound | IC50 [1] [nM] | IC50 [2] [nM] | IC50 [3] [nM] | IC50 [4] [nM] | other results
O=C(CCCCCONC(=O)c1nc2ccccc2s1)NO | 2700 | 3160 | 21800 | 6330 | 
O=C(CCCCCONC(=O)c1ccnc2ccccc12)NO | 7680 | 5970 | 70000 | 11900 | 
O=C(CCCCCONC(=O)c1ccc2cc[nH]c2c1)NO | 600 | 400 | 11300 | 4300 | 
O=C(CCCCCONC(=O)c1c[nH]c2ccccc12)NO | 1360 | 810 | 7800 | 1700 | 
O=C(CCCCCONC(=O)c1nc2ccccc2[nH]1)NO | 9080 | 4170 | > 100000 | 58200 | 
O=C(CCCCCONC(=O)c1cnc2ccccc2n1)NO | 190 | 490 | 7700 | 800 | IC50 [5]: 44 nM; IC50 [6]: 60800 nM; IC50 [7]: 18 nM; IC50 [8]: 7950 nM; Ratio IC50 [14]: 2.6; Ratio IC50 [15]: 1.23; IC50 [16]: 18700 nM; IC50 [17]: 2900 nM
Nc1ccccc1NC(=O)c1ccc(CNC(=O)OCc2cccnc2)cc1 |  |  |  |  | inhibition [18]: inactive
O=C(CCCCCCNC(=O)c1cnc(N(c2ccccc2)c2ccccc2)nc1)NO [RICOLINOSTAT] |  |  |  |  | IC50 [19]: 902 nM; IC50 [20]: > 10000 nM
CC(C)(C)OC(=O)Nc1ccc(-c2cc(C(=O)NCCCCCCC(=O)NO)no2)cc1 |  |  |  |  | IC50 [19]: 109 nM; IC50 [20]: 594 nM

The next lines start with results.

IC50 [1] [nM] | IC50 [2] [nM] | IC50 [3] [nM] | Compound | IC50 [4] [nM] | other results
1710 | 1990 | 5560 | O=C(CCCCCONC(=O)c1cc2ccccc2o1)NO | 780 | 
710 | 430 | 7600 | O=C(CCCCCONC(=O)c1[nH]nc2ccccc12)NO | 1800 | 
850 | 450 | 7500 | O=C(CCCCCONC(=O)c1ccc2[nH]ccc2c1)NO | 1300 | 
350 | 100 | 1000 | O=C(CCCCCONC(=O)c1ccc2ccccc2c1)NO | 180 | IC50 [5]: 41 nM; IC50 [6]: 51800 nM; IC50 [7]: 11 nM; IC50 [8]: 3790 nM; Ratio IC50 [9]: 5.09; Ratio IC50 [10]: 1.54; IC50 [11]: 9530 nM; IC50 [12]: 2320 nM; inhibition [13]: Active
3710 | 1720 | 6280 | O=C(CCCCCONC(=O)Cc1ccc2ccccc2c1)NO | 3570 | 
2390 | 1890 | 7600 | O=C(CCCCCONC(=O)c1cccc2ccccc12)NO | 4200 | 
640 | 460 | 1000 | O=C(CCCCCONC(=O)c1cccc2cc[nH]c12)NO | 1000 | 
1580 | 2250 | 4880 | O=C(CCCCCONC(=O)c1cc2ccccc2s1)NO | 500 | 
740 | 480 | 5300 | O=C(CCCCCONC(=O)c1cccc2[nH]ccc12)NO | 1200 | 
